Experiment: xn = mol fraction of the nth substance listed
Details: 101 kPa

CN(C)C=O + CCCC[n+]1ccn(C)c1.F[P-](F)(F)(F)(F)F
x1 = 1
Details	viscosity [mPa·s]
293.15 K	0.91
298.15 K	0.87
308.15 K	0.78
313.15 K	0.75
318.15 K	0.72

CCCC[n+]1ccn(C)c1.F[P-](F)(F)(F)(F)F + CN(C)C=O
viscosity [mPa·s]
Details	x2 = 0	x2 = 0.1002	x2 = 0.2	x2 = 0.3002	x2 = 0.3999	x2 = 0.5	x2 = 0.6	x2 = 0.7	x2 = 0.7999	x2 = 0.8999
293.15 K	265	151.1	94.6	59.6	–	23.41	12.37	6.86	3.71	1.9
298.15 K	205.6	114.5	73.4	47.4	32.09	19.44	10.57	6.02	3.35	1.77
303.15 K	165.7	88.2	58	38.1	26.34	16.3	9.11	5.32	3.03	1.62
308.15 K	133.9	68.8	45.9	–	21.74	13.74	–	–	2.73	1.5
313.15 K	110.8	54.9	37.4	25.68	18.3	11.82	6.94	4.22	2.51	1.4
318.15 K	–	44.6	–	21.55	15.57	10.24	–	3.82	2.3	1.31

Source: a compilation of properties of binary mixtures (doi:10.1016/s1004-9541(08)60072-5)
